Assay results: patent US20030130355A1, “Therapeutic agents” (priority 2000, published 2003)

Experiments:
[1] = tested on: rats; settings: cited from earlier work
[2] = tested on: conscious, telemetered rats; assay type: in vivo, rat
Description: The methods used were similar to those described in:
Brockway, B P, Mills, P A & Azar, S H (1991) A new method for continuous chronic measurement of blood pressure, heart rate and activity in the rat via radio-telemetry. Clinical and Experimental Hypertension—Theory and Practice A13(5), 885-895 and
Guiol, C, Ledoussal, C & Surgé, J-M (1992) A radiotelemetry system for chronic measurement of blood pressure and heart rate in the unrestrained rat. Validation of method. Journal of Pharmacological and Toxicological Methods 28, 99-105.
In brief, male rats (n=10) were implanted with a telemetry device for the measurement of arterial blood pressure and heart rate. Two weeks following implantation each animal received a single oral dose of vehicle, one dose of sibutramine or a combination of sibutramine and flesinoxan in a cross-over design. Measurements of blood pressure and heart rate were taken from each rat in sequence every three minutes for nine hours following drug administration and averaged into appropriate time-bins. Statistical comparisons were by the least significant difference or multiple t-test.
In FIGS. 1 and 2, shaded circles relate to the administration of vehicle alone p.o., shaded squares relate to the administration of sibutramine at 10 mg/kg p.o. and shaded triangles relate to the administration of sibutramine at 10 mg/kg p.o. together with flesinoxan at 30 mg/kg p.o. Statistical comparisons made by the least significant difference or multiple t-test are shown as *=p<0.05 versus vehicle and t=p<0.05 versus sibutramine.

For `CCCN(CCC)C1CCc2cccc(O)c2C1` (centres unmarked) [8-OH-DPAT], the food intake [1] is listed as “increases food intake”.
With `O=C(NCCN1CCN(c2cccc3c2OC[C@H](CO)O3)CC1)c1ccc(F)cc1` [flesinoxan] the “effect on the increase in mean arterial blood pressure induced by sibutramine” value ([2]; flesinoxan 30 mg/kg p.o. co-administered with sibutramine 10 mg/kg p.o., FIG. 1) was “completely reversed” and the “effect on the increase in heart rate produced by sibutramine” value ([2]; flesinoxan 30 mg/kg p.o. co-administered with sibutramine 10 mg/kg p.o., FIG. 2) was “prevented the increase in heart rate”.
In the case of `CC(C)CC(N(C)C)C1(c2ccc(Cl)cc2)CCC1` (centres unmarked) [sibutramine, N-{1-[1-(4-chlorophenyl)cyclobutyl]-3-methylbutyl}-N,N-dimethylamine], the “mean arterial blood pressure” value ([2]; sibutramine 10 mg/kg p.o. alone, versus vehicle, conscious telemetered male rats, nine hours, FIG. 1) is reported as “significant increase” and the heart rate ([2]; sibutramine 10 mg/kg p.o. alone, conscious telemetered rats, FIG. 2) is reported as “increase in heart rate”.
